Data published in patent US8834841B2, “Imaging agents” (priority 2005, dated 2014).

Experiments:
U87 glial blastoma = test: in vitro amino acid uptake, U87 cells; type: cell-based, human
Excerpt: The inventive compounds have been evaluated in vitro for tumor binding specificity (i.e. uptake cells) using a variety of tumor cell lines available in the art, along with reference compounds such as Me-AIB and BCH. Detailed description of these assays can be found in Martarello et al. (2002) Journal of Medicinal Chemistry, 45:2250-2259 and McConathy et al. (2003) Nuclear Medicine and Biology, 30:477-490. These, so called “amino acid uptake studies” are typically carried out with radiolabeled compounds in at least five phenotypically different human tumor cell lines (e.g. A549 lung carcinoma, MB468 breast carcinoma, DU145 prostate carcinoma, SKOV3 ovarian carcinoma, and U87 glial blastoma). These tumor cell lines can be grown either in vitro or in vivo with severe combined immunodeficiency (SCID) mice as a host. The fore-mentioned tumor cell lines are available at the Winship Cancer Institute of Emory University.
For the in vitro amino acid uptake studies, all cells can be grown to monolayer confluency in T-175 culture flasks [Corning, Corning, N.Y.] (approx. 1×10^8 cells/flask) in Dulbecco's Modified Eagle's Medium (DMEM) [Sigma, St. Louis, Mo.] in a humidified incubator (37° C., 5% CO2/95% air). Media are supplemented with 10% fetal calf serum [Hyclone, Logan, Utah], and antibiotics (10,000 U/ml penicillin and 10 mg/ml streptomycin) (Sigma, St. Louis, Mo.). For tissue culture passage, monolayer cells are detached by gentle trypsinization, resuspended in complete media, and split 1:10 into new T-flasks. […]
(§1) In the in vitro studies the uptake rate of each amino acid compound is measured in each tumor line, as well as the dominant transport mechanisms of each tumor cell line. After trypsinization, cells are resuspended in serum-free media, then counted on a hemocytometer, with viability assessed through Trypan blue staining. […] The vials are placed in a Cobra-II gamma counter (Packard, Meriden, Conn.), with the activity per cell number determined. […] Saline washes are performed as described above, and the filtered cells radioactivity determined on the gamma counter. […]

[1] = test system: type “L” type large-neutral amino acid transport system; test: in vitro uptake studies in human tumor cells, summary; type: cell-based; settings: U87, DU145, A549, SKOV3, MB468 cells (Table 1)
Excerpt: The inventive compounds have been evaluated in vitro for tumor binding specificity (i.e. uptake cells) using a variety of tumor cell lines available in the art, along with reference compounds such as Me-AIB and BCH. Detailed description of these assays can be found in Martarello et al. (2002) Journal of Medicinal Chemistry, 45:2250-2259 and McConathy et al. (2003) Nuclear Medicine and Biology, 30:477-490. These, so called “amino acid uptake studies” are typically carried out with radiolabeled compounds in at least five phenotypically different human tumor cell lines (e.g. A549 lung carcinoma, MB468 breast carcinoma, DU145 prostate carcinoma, SKOV3 ovarian carcinoma, and U87 glial blastoma). These tumor cell lines can be grown either in vitro or in vivo with severe combined immunodeficiency (SCID) mice as a host. […]
as §1

[2] = test system: A549 (lung), DU145 (prostate), SKOV3 (ovary), and MDA MB468 (breast) tumor-bearing SCID mice; test: in vivo biodistribution studies, summary over tumor models; settings: injected intravenously
Procedure: For the in vitro amino acid uptake studies, all cells can be grown to monolayer confluency in T-175 culture flasks [Corning, Corning, N.Y.] (approx. 1×10^8 cells/flask) in Dulbecco's Modified Eagle's Medium (DMEM) [Sigma, St. Louis, Mo.] in a humidified incubator (37° C., 5% CO2/95% air). Media are supplemented with 10% fetal calf serum [Hyclone, Logan, Utah], and antibiotics (10,000 U/ml penicillin and 10 mg/ml streptomycin) (Sigma, St. Louis, Mo.). For tissue culture passage, monolayer cells are detached by gentle trypsinization, resuspended in complete media, and split 1:10 into new T-flasks. Cultures are passaged weekly, and fed fresh media every 2 to 3 days. To initiate tumor growth in SCID mice, 1×10^6 cells are injected s.c. bilaterally into the flanks (inguinal region) of the recipient animals using a 1 ml syringe with a 27 gauge needle. Ex vivo experiments can be performed with animals containing tumors weighing between 500 mg and 1 g, as estimated by caliper measurement (tumor weight=(π/6)*abc, where a, b and c are the tumor length, width and height, respectively). The compounds of the invention are further evaluated for their tumor specificity and selectivity in tumor-bearing animal models. One can evaluate and compare the transport, accumulation and tissue distribution of each compound in these in vivo animal studies. Tissue distribution of the compounds is measured in SCID mice (average weight, 20-25 g) bearing human tumors as follows. The candidate radioligands (20 uCi in 0.4 ml 0.9% NaCl) are injected into the tail vein of tumor-bearing mice. The animals are sacrificed (cervical dislocation) at 5, 30, 60 and 120 minutes post-injection. Tissues (blood, heart, liver, lungs, kidneys, bone, thyroid, muscle, brain and tumor) are excised, rinsed in saline, and blotted dry. The tissues are weighed, placed into 12×75 mm glass vials, the radioactivity determined with a gamma counter, and the percent dose/gram calculated. Total activities of blood and muscle are calculated by assuming that they account for 7% and 40% of the total body mass, respectively. As exemplified above, the amino acid compounds of the invention have advantageous physiological characteristics (i.e., tumor binding specificity and selectivity, in vivo stability etc).

[3] = 120 min p.i., range over tumor models

tumor uptake [2, 3]: 1.4-3.4 % dose/g | tumor-to brain ratio [2, 3]: 15-30 | tumor-to kidney ratio [2, 3]: 1.5-2.7 | tumor-to liver ratio [2, 3]: 2.4-4 | tumor-to muscle ratio [2, 3]: 2-4
Structure (SMILES): NC1(C(=O)O)CCC1[18F] [Anti-R,S 2-[^18F]FACBC, (R,S) anti-1-amino-2-[^18F]fluorocyclobutyl-1-carboxylic acid]
% Dose Uptake/0.5e6 Cells (U87 glial blastoma; U87, No inhibitor): 8.28 +/− 0.45 % Dose Uptake/0.5e6 Cells | % Dose Uptake/0.5e6 Cells (U87 glial blastoma; U87, inhibitor BCH (10 mM)): 2.48 +/− 0.23 % Dose Uptake/0.5e6 Cells | % Dose Uptake/0.5e6 Cells (U87 glial blastoma; U87, inhibitor MeAlB (10 mM)): 5.41 +/− 0.64 % Dose Uptake/0.5e6 Cells | uptake by the type “L” type large-neutral amino acid transport system [1]: high uptake | accumulation of radioactivity in tumors [2]: rapid and prolonged accumulation of radioactivity in tumors
